This assay has as its system Human TLR7/8. In words: Human PBMC cell-based assay, TLR7/8 stimulus (RNA-Ig), cytokine ELISA. An outline of the steps: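 Healthy-donor human PBMC, 2×10^5 cells/well (1×10^5 in later assay), pre-treated 30 min with compound (0.1% DMSO). Stimulated 20 h at 37 °C with RNA-Ig: 26-mer U1 snRNA stem loop IV phosphorothioate RNA at 2.5 μM plus anti-ssDNA antibody (1:25 or 1 ug/ml). Supernatant cytokines by ELISA.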

[1] abbreviates: primary human PBMC assay, TLR7/8 potency, ligand not given, read-out: Human PBMCs IC50.

Read-outs that look alike come from different tables or passages of the source.

`C[C@@H]1CN(c2ccc(C#N)c3ncccc23)C[C@H](C)O1` [ER-878952]: the IC50 under setting [1] was determined as 151 nM.
With `C[C@@H]1CN(c2ccc(C#N)c3ncccc23)C[C@H](CO)O1` [ER-885493, 5-((2R,6R)-2-(hydroxymethyl)-6-methylmorpholino)quinoline-8-carbonitrile], the IC50 under setting [1] was found to be 180 nM.
With `C[C@@H]1CN(c2ccc(C#N)c3ncccc23)C[C@H](CN2CC[C@H](O)C2)O1` [ER-886820], the IC50 under setting [1] came out at 62 nM.
Still for that read-out and setting: as for `C[C@@H]1CN(c2ccc(C#N)c3ncccc23)C[C@H](CN2CCC(O)CC2)O1` [ER-886953], the figure is 26 nM; as for `C[C@@H]1CN(c2ccc(C#N)c3ncccc23)C[C@H](CNC2CCCC2)O1` [ER-887145], 15 nM.
`C[C@@H]1CN(c2ccc(C#N)c3ncccc23)C[C@H](CN2CCNCC2)O1` [ER-887253]: the half-inhibitory concentration (IC50) under setting [1] is 1 nM.
Consider `C[C@@H]1CN(C[C@H]2CN(c3ccc(C#N)c4ncccc34)C[C@@H](C)O2)CCN1` [ER-887269], for which the IC50 under setting [1] came out at 1 nM.
For the compound `CC1CNC(=O)CN1C[C@H]1CN(c2ccc(C#N)c3ncccc23)C[C@@H](C)O1` (some centres unmarked) [ER-887722], the IC50 under setting [1] came out at 65 nM.
On the same count and under the same terms, under `C[C@@H]1CN(c2ccc(C#N)c3ncccc23)C[C@H](CN2CCN(C)CC2)O1` [ER-887723] stands 7 nM.
The same measure, in the same setting: as for `CCCN1CCN(C[C@H]2CN(c3ccc(C#N)c4ncccc34)C[C@@H](C)O2)CC1` [ER-887724], the figure is 6 nM; as for `CC1CN(c2ccc(C#N)c3ncccc23)CC(CN2CCC(N(C)C)CC2)O1` (centres unmarked) [ER-887725], 2 nM.
As to `CC(=O)NC1CCN(CC2CN(c3ccc(C#N)c4ncccc34)CC(C)O2)CC1` (centres unmarked) [ER-888288], the IC50 under setting [1] worked out at 15 nM.
`CC1CN(c2ccc(C#N)c3ncccc23)CC(CN2CCN(C)CC2C)O1` (centres unmarked) [ER-889556]: the IC50 under setting [1] turned out to be 10 nM.
Take `CC1CN(c2ccc(C#N)c3ncccc23)CC(CN2CCC(NC(=O)C(C)C)CC2)O1` (centres unmarked) [ER-889745]: the IC50 under setting [1] came to 46 nM.
`CC[C@H]1CN(C[C@H]2CN(c3ccc(C#N)c4ncccc34)C[C@@H](C)O2)CCN1` [ER-890963]: the IC50 under setting [1] amounted to 2 nM.
Turning to `C[C@@H]1CN(c2ccc(C#N)c3ncccc23)C[C@H](C(=O)NC2CCN(C)CC2)O1` [ER-899464, (2R,6R)-4-(8-cyanoquinolin-5-yl)-6-methyl-N-(1-methylpiperidin-4-yl)morpholine-2-carboxamide], under setting [1], the IC50 worked out at 1 nM.
In the case of `C[C@@H]1CN(c2ccc(C#N)c3ncccc23)C[C@H](C(=O)N[C@H]2CNC[C@H]2F)O1.Cl` [ER-899742, (2R,6R)-4-(8-cyanoquinolin-5-yl)-N-[(3S,4R)-4-fluoropyrrolidin-3-yl]-6-methylmorpholine-2-carboxamide hydrochloride], the concentration for half-maximal inhibition (IC50) is, setting by setting: (Hu PBMC, ligand RNA-Ig, analyte IL-6) 0.9 nM; (read-out: Human PBMCs IC50, primary human PBMC assay, TLR7/8 potency, ligand not given) 1 nM. Also, where the note is “RNA-Ig TLR7/8 stimulus”, the “fold more potent versus HCQ” value is given as “approximately 1000 fold”.
For `CCN(CCO)CCCC(C)Nc1ccnc2cc(Cl)ccc12` (centres unmarked) [HCQ, hydroxychloroquine, reference compound], the IC50 (Hu PBMC, ligand RNA-Ig, analyte IL-6, read-out: IC50) lay within 1000 to 2000 nM.

For the origin of these results see patent USRE47193E1, “Selectively substituted quinoline compounds” (EISAI R&D MANAGEMENT CO., LTD., priority 2013, dated 2019).
